IC50 data for 1 compound are collected here from PMC7772550 (Heliyon, 2020).

This experiment concerns NO production. Description: nitric oxide. In kind it is cell-based. Conditions: read-out: NO production inhibition IC50.

Usually IC50 stands for the midpoint of a concentration-inhibition curve. `COc1ccc2c(c1)c(CC(=O)O)c(C)n2C(=O)c1ccc(Cl)cc1` [Indomethacin]: the IC50 came to 32.2 µM.
